In patent US8642794B1, “Biosurfactant compounds produced by Aureobasidium pullulans” (Gyeongbuk Institute for Marine Bio-industry, priority 2012, dated 2014):

Assay: Surface tension measurement with a tensiometer (Sigma 700), aqueous solution dropped onto a hydrophobic film
Format: physicochemical
Conditions: at 1.0 mg/liter; water as control
Experimental: The compounds L3-E3 and L3-E6 isolated in Examples 2 and 4, respectively, were dropped onto the surface of a hydrophobic film, and their surface tension was measured by using a tensiometer (Sigma 700 Tensiometer, KSV Instruments Ltd., Finland). Here, water was used as a control, and the change in surface tension was measured by using a microbial culture, L3-E3 and L3-E6.

| SMILES | surface tension |
| --- | --- |
| CCCCCC(O)CC(O)CC(=O)OC(CCCCC)CC(O)CC(=O)OC (centres unmarked) [L3-E3] | 29.5 dyne/cm |
| CCCCCC(O)CC(O)CC(=O)OC(CCCCC)CCCC(=O)OC (centres unmarked) [L3-E6] | 36.4 dyne/cm |
